{"source": "patent US8921559B2", "about": "“4-substituted-cyclohexylamino-4-piperidinyl-acetamide antagonists of CCR2” (Janssen Pharmaceutica NV, priority 2010, dated 2014)", "note": "pIC50: −log10 of the molar value. Where a name gives a salt, the structure may show the parent alone.", "data": [{"target": "CCR2 (Homo sapiens (Human), UniProt P41597)", "sequence (P41597 other isoform, or with tags, fused parts or gaps isoform P41597-2)": "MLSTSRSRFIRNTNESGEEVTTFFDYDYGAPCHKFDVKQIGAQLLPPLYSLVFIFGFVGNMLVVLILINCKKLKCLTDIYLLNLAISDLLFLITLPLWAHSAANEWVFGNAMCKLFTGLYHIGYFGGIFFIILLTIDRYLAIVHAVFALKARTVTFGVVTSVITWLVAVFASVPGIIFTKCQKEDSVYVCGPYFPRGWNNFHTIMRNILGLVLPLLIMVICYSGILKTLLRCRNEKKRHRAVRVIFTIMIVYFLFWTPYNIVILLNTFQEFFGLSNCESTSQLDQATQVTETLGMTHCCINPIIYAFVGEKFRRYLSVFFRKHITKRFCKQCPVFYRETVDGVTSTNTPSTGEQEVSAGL", "experiment": "MCP-1 Receptor Binding Assay in THP-1 Cells", "conditions": "0.5 nM 125I labeled MCP-1, 2 hours at 30° C., average of the two most similar values where more than one IC50, read-out: Inhibition of MCP-1 Binding IC50 CCR2 Binding", "procedure": "Compounds of the invention were subjected to various representative biological tests. […] MCP-1 Receptor Binding Assay in THP-1 Cells Human monocytic cell line THP-1 cells were obtained from American Type Culture Collection (Manassas, Va., USA). The THP-1 cells were grown in RPMI-1640 (RPMI: Roswell Park Memorial Institute Medium-cell culture growth media) supplemented with 10% fetal bovine serum in a humidified 5% CO2 atmosphere at 37° C. The cell density was maintained between […].\nTHP-1 (cells were incubated with 0.5 nM ^125I labeled MCP-1 (Perkin-Elmer Life Sciences, Inc. Boston, Mass.) in the presence of varying concentrations of either unlabeled MCP-1 (R & D Systems, Minneapolis, Minn.) or test compound for 2 hours at 30° C. in a 96 well plate. Cells were then harvested onto a filter plate, dried, and 20 μL of Microscint 20 was added to each well. Plates were counted in a TopCount NXT, Microplate Scintillation & Luminescence Counter (Perkin-Elmer Life Sciences, Inc. Boston, Mass.). Blank values (buffer only) were subtracted from all values and drug treated values were compared to vehicle treated values. 1 μM cold MCP-1 was used for nonspecific binding.", "values": [{"molecule": "COC(=O)C(N[C@H]1CC[C@H](c2c[nH]c3ccccc32)CC1)C1CCN(C(=O)/C=C/c2cc(F)cc(F)c2)CC1", "note": "(stereo partly drawn) [Example 24, Methyl 2-[4-(1H-indol-3-yl)-trans-cyclohexylamino]-2-[1-(trans-3,5-difluorocinnamoyl)piperidin-4-yl]-acetate]", "pIC50": 6.41}, {"molecule": "NC(=O)C(NC1CCC(c2c[nH]c3ccccc23)CC1)C1CCN(C(=O)Nc2cccc(C(F)(F)F)c2)CC1", "note": "(stereo not drawn) [Example 16, 2-[4-(1H-Indol-3-yl)-cyclohexylamino]-2-[N-(3-{trifluoromethyl}-phenyl)piperidine-1-carboxamid-4-yl]-acetamide]", "pIC50": 6.82}, {"molecule": "CCOC(=O)c1cccc(NC(=O)N2CCC(C(NC3CCC(c4c[nH]c5ccccc45)CC3)C(N)=O)CC2)c1", "note": "(stereo not drawn) [Example 19, 2-[4-(1H-Indol-3-yl)-cyclohexylamino]-2-[N-(3-{ethoxycarbonyl}-phenyl)piperidine-1-carboxamid-4-yl]-acetamide]", "pIC50": 7.24}, {"molecule": "NC(=O)C(NC1CCC(c2c[nH]c3ccccc23)CC1)C1CCN(C(=O)Nc2ccc(Cl)c(Cl)c2)CC1", "note": "(single isomer, unassigned) [Example 4b, 2-[4-(1H-Indol-3-yl)-cyclohexylamino]-2-[N-(3,4-dichlorophenyl)piperidine-1-carboxamid-4-yl]-acetamide]", "pIC50": 8.10}, {"molecule": "NC(=O)C(NC1CCC(c2c[nH]c3ccccc23)CC1)C1CCN(C(=O)Nc2ccc(F)cc2)CC1", "note": "(stereo not drawn) [Example 29, 2-[4-(1H-Indol-3-yl)-cyclohexylamino]-2-[N-(4-fluorophenyl)piperidine-1-carboxamid-4-yl]-acetamide]", "pIC50": 6.17}, {"molecule": "NC(=O)C(NC1CCC(c2c[nH]c3ccccc23)CC1)C1CCN(C(=O)Nc2ccc(OC(F)(F)F)cc2)CC1", "note": "(stereo not drawn) [Example 11, 2-[4-(1H-Indol-3-yl)-cyclohexylamino]-2-[N-(4-{trifluoromethoxy}-phenyl)piperidine-1-carboxamid-4-yl]-acetamide]", "pIC50": 6.58}, {"molecule": "NC(=O)C(NC1CCC(c2c[nH]c3ccccc23)CC1)C1CCN(C(=O)Nc2cccc(F)c2)CC1", "note": "(stereo not drawn) [Example 20, 2-[4-(1H-Indol-3-yl)-cyclohexylamino]-2-[N-(3-fluorophenyl)piperidine-1-carboxamid-4-yl]-acetamide]", "pIC50": 6.43}, {"molecule": "NC(=O)C(NC1CCC(c2c[nH]c3ccccc23)CC1)C1CCN(C(=O)Nc2ccc(C(F)(F)F)cc2)CC1", "note": "(stereo not drawn) [Example 9, 2-[4-(1H-Indol-3-yl)-cyclohexylamino]-2-[N-(4-{trifluoromethyl}-phenyl)piperidine-1-carboxamid-4-yl]-acetamide]", "pIC50": 6.89}, {"molecule": "O=C(O)C(N[C@H]1CC[C@@H](c2c[nH]c3ccccc32)CC1)C1CCN(C(=O)Nc2ccc(Cl)c(Cl)c2)CC1", "note": "(stereo partly drawn) [Example 28, 2-[4-(1H-Indol-3-yl)-cis-cyclohexylamino]-2-[N-(3,4-dichlorophenyl)-piperidine-1-carboxamid-4-yl]-acetic acid hydrochloride]", "pIC50": 6.49}, {"molecule": "NC(=O)C(NC1CCC(c2c[nH]c3ccccc23)CC1)C1CCN(C(=O)Nc2ccc(Cl)c(Cl)c2)CC1", "note": "(single isomer, unassigned) [Example 4a, 2-[4-(1H-Indol-3-yl)-cyclohexylamino]-2-[N-(3,4-dichlorophenyl)piperidine-1-carboxamid-4-yl]-acetamide]", "pIC50": 6.33}, {"molecule": "NC(=O)C(NC1CCC(c2c[nH]c3ccccc23)CC1)C1CCN(C(=O)/C=C/c2ccc3c(c2)OC(F)(F)O3)CC1", "note": "(stereo not drawn) [Example 17, 2-[4-(1H-Indol-3-yl)-cyclohexylamino]-2-[1-(trans-3-(2,2-difluoro-1,3-benzodioxol-5-yl)prop-2-enoyl)piperidin-4-yl]-acetamide]", "pIC50": 6.75}, {"molecule": "NC(=O)C(NC1CCC(c2c[nH]c3ccccc23)CC1)C1CCN(C(=O)Nc2cc(F)cc(F)c2)CC1", "note": "(stereo not drawn) [Example 30, 2-[4-(1H-Indol-3-yl)-cyclohexylamino]-2-[N-(3,5-difluorophenyl)piperidine-1-carboxamid-4-yl]-acetamide]", "pIC50": 6.15}, {"molecule": "NC(=O)C(NC1CCC(c2c[nH]c3ccccc23)CC1)C1CCN(C(=O)/C=C/c2ccccc2)CC1", "note": "(stereo not drawn) [Example 18, 2-[4-(1H-Indol-3-yl)-cyclohexylamino]-2-[1-(trans-cinnamoyl)piperidin-4-yl]-acetamide]", "pIC50": 6.72}, {"molecule": "Cc1cccc(NC(=O)N2CCC(C(NC3CCC(c4c[nH]c5cccnc45)CC3)C(N)=O)CC2)c1", "note": "(stereo not drawn) [Example 48, 2-[4-(1H-pyrrolo[3,2-b]pyridin-3-yl)cyclohexyl]amino-2-[N-(3-tolyl)piperidine-1-carboxamid-4-yl]-acetamide]", "pIC50": 6.23}, {"molecule": "CNC(=O)C(NC1CCC(c2c[nH]c3ccccc23)CC1)C1CCN(C(=O)/C=C/c2cc(F)c(F)c(F)c2)CC1", "note": "(stereo not drawn) [Example 53, N-Methyl-2-{[4-(1H-Indol-3-yl)-cyclohexylamino]-2-[1-(trans-3,4,5-trifluorocinnamoyl)-piperidin-4-yl]}-acetamide]", "pIC50": 6.01}, {"molecule": "NC(=O)C(NC1CCC(c2c[nH]c3ccccc23)CC1)C1CCN(C(=O)/C=C/c2ccc3c(c2)CCC3)CC1", "note": "(stereo not drawn) [Example 12, 2-[4-(1H-Indol-3-yl)-cyclohexylamino]-2-[1-(trans-3-indan-5-ylprop-2-enoyl)piperidin-4-yl]-acetamide]", "pIC50": 6.92}, {"molecule": "COC(=O)C(NC1CCC(c2c[nH]c3ccccc23)CC1)C1CCN(C(=O)/C=C/c2cc(F)c(F)c(F)c2)CC1", "note": "(stereo not drawn) [Example 49a, Methyl 2-[4-(1H-indol-3-yl)-trans-cyclohexylamino]-2-[1-(trans-3,4,5-trifluorocinnamoyl)piperidin-4-yl]-acetate]", "pIC50": 6.39}, {"molecule": "CN(C)C(=O)C(NC1CCC(c2c[nH]c3ccccc23)CC1)C1CCN(C(=O)/C=C/c2cc(F)c(F)c(F)c2)CC1", "note": "(stereo not drawn) [Example 54, N,N-Dimethyl-2-{[4-(1H-Indol-3-yl)-cyclohexylamino]-2-[1-(trans-3,4,5-trifluorocinnamoyl)-piperidin-4-yl]}-acetamide]", "pIC50": 6.01}, {"molecule": "NC(=O)C(NC1CCC(c2c[nH]c3ccccc23)CC1)C1CCN(C(=O)Nc2ccc(F)c(F)c2)CC1", "note": "(stereo not drawn) [Example 32, 2-[4-(1H-Indol-3-yl)-cyclohexylamino]-2-[N-(3,4-difluorophenyl)piperidine-1-carboxamid-4-yl]-acetamide]", "pIC50": 6.09}, {"molecule": "NC(=O)C(NC1CCC(c2c[nH]c3ccccc23)CC1)C1CCN(C(=O)/C=C/c2ccc(C(F)(F)F)cc2)CC1", "note": "(stereo not drawn) [Example 13, 2-[4-(1H-Indol-3-yl)-cyclohexylamino]-2-[1-(trans-4-{trifluoromethyl}-cinnamoyl)piperidin-4-yl]-acetamide]", "pIC50": 6.87}, {"molecule": "NC(=O)C(NC1CCC(c2c[nH]c3ccncc23)CC1)C1CCN(C(=O)/C=C/c2ccc(F)cc2)CC1", "note": "(single isomer, unassigned) [Example 47b, 2-[4-(1H-pyrrolo[3,2-c]pyridin-3-yl)cyclohexyl]amino-2-[1-(trans-4-fluorocinnamoyl)-piperidin-4-yl]-acetamide]", "pIC50": 6.19}]}]}
